As usually defined, the melting point is the temperature, or range, at which the solid turns liquid. The term Emax denotes the size of the effect at its maximum, as opposed to the concentration needed. The term EC50 denotes the concentration that produces a half-maximal response.

Like-named read-outs stand apart in the source and are kept apart here.

Here are results for one compound from article PMC9917830, “New Piperazine Derivatives of 6-Acetyl-7-hydroxy-4-methylcoumarin as 5-HT1A Receptor Agents” (International Journal of Molecular Sciences, 2023).

In one series the target is T1, 5-HT2A receptor (Rattus norvegicus, UniProt P14842).
T1 construct: Brains were rapidly removed and placed on ice; from tissue; host or cells: Sprague–Dawley rat frontal cortex membranes
T1 sequence (P14842 whole entry): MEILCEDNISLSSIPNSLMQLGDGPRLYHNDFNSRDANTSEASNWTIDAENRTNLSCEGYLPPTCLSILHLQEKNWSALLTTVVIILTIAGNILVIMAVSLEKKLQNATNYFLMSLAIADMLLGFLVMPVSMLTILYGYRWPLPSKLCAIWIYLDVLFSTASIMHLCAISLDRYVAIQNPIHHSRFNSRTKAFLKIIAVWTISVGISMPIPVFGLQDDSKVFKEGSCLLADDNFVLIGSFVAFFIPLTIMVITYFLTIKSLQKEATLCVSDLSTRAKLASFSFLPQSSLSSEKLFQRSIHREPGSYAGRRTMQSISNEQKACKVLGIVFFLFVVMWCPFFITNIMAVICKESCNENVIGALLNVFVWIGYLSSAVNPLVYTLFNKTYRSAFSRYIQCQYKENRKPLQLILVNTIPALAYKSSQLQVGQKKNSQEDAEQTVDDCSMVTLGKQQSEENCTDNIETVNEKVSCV
The series can be described thus: Competitive 5-HT2A binding assay with [3H]ketanserin, rat frontal cortex membranes. The following applies: 1 nM [3H]ketanserin, 95% CI in brackets, read-out: 5-HT2A Affinity Ki (nM, 95% CI). Here is the method:
(§1) Sprague–Dawley rats were sacrificed by isoflurane overdose. Brains were rapidly removed and placed on ice. Hippocampi (for 5-HT1A assays) and frontal cortices (for 5-HT2A assays) were dissected on a Petri dish. The tissue from 10 rats was homogenized in 30 vol. homogenization buffer (50 mM Tris-HCl, […], 1 mM EDTA, 1 mM dithiothreitol) with a hand-held Teflon-glass homogenizer. The homogenate was centrifuged at 48,000× g at 4 °C for 15 min. The pellet was suspended and homogenized in homogenization buffer and incubated for 10 min at 36 °C. The centrifugation and suspension steps were repeated twice. The final pellet was homogenized in 5 vol. 50 mM Tris-HCl, pH = 7.4 buffer and stored at −80 °C for not more than 6 months.
(§2) Non-specific binding was determined with 10 μM serotonin in both assays. The final DMSO concentration in the assay was 5%. After incubation, the reaction mixture was deposited with the FilterMate-96 Harvester (Perkin Elmer, Waltham, MA, USA) onto Unifilter® GF/C plates (Perkin Elmer, Waltham, MA, USA) presoaked in 0.4% PEI for 1h. Each well was washed with 2 mL of 50 mM Tris-HCl (pH 7.4) buffer to separate bound ligands from free ones. Plates were left to dry overnight. Then, 35 µL of Microscint-20 scintillation fluid (Perkin Elmer, Waltham, MA, USA) was added to each filter well and left to equilibrate for 2 h. Filter-bound radioactivity was counted in a MicroBeta^2 LumiJet scintillation counter (Perkin Elmer, Waltham, MA, USA). Binding curves were fitted with one-site non-linear regression. Binding affinity (pKi ± SEM and Ki ± 95% confidence intervals) for each compound was calculated from […] values with the Cheng-Prusoff equation from two separate experiments.

Series [1] addresses T2, 5-HT1A receptor (Rattus norvegicus, UniProt P19327).
T2 construct: Brains were rapidly removed and placed on ice; from tissue; host or cells: Sprague–Dawley rat hippocampus membranes
T2 sequence (P19327 1-422): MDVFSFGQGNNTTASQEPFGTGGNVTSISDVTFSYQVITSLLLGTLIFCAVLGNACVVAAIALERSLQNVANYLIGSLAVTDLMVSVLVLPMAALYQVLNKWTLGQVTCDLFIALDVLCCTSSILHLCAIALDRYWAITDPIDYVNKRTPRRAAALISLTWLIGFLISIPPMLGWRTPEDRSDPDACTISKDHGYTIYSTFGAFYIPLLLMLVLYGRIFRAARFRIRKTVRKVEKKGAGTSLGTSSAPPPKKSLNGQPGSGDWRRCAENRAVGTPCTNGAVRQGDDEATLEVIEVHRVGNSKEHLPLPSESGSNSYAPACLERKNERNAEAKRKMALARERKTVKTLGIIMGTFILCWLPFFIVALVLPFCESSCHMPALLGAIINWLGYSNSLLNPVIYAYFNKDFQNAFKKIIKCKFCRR
The series can be described thus: 5-HT1A receptor activation in the [35S]GTP-γ-S assay (agonist and antagonist mode). Type of series: biochemical. Here is the method:
as §1, with “The pellet was suspended and homogenized in homogenization buffer and incubated for 10 min at 36 °C.” left out
Non-specific binding was determined with 100 µM of unlabeled GTPγS. The compounds were tested in both the agonist and antagonist mode. […] The final DMSO concentration in the assay was 5%. The reaction mixture was incubated for 90 min at 30 °C on an orbital shaker set at 250 rpm. The reaction mixture was then deposited under vacuum with the FilterMate Harvester® (Perkin Elmer, Waltham, MA, USA) onto Unifilter® GF/C Plates (Perkin Elmer, Waltham, MA, USA) presoaked with wash buffer (50 mM Tris-HCl, pH = 7.4). The wells were then rapidly washed with 2 mL of wash buffer. The filter plates were dried overnight at room temperature. Once completely dry, 35 µL of MicroScint PS (Perkin Elmer, Waltham, MA, USA) scintillation fluid was added to each well. Radioactivity was counted in a MicroBeta^2 LumiJet scintillation counter (Perkin Elmer, Waltham, MA, USA). […] The curves were fitted with the three-parameter non-linear regression model.
A general note: Binding of GTPγS marks nucleotide exchange on a G protein.

The target in series [2] is T2, 5-HT1A receptor. The experiment in a line: Competitive 5-HT1A binding assay with [3H]8-OH-DPAT, rat hippocampal membranes. The following applies: 1 nM [3H]8-OH-DPAT. Here is the method: as §1, §2

In turn, `CC(=O)c1cc2c(C)cc(=O)oc2cc1OCCCCN1CCN(c2cccc(Br)c2)CC1` [Compound 4, 6-Acetyl-7-{4-[4-(3-bromophenyl)piperazin-1-yl]butoxy}-4-methylchromen-2-one] had a melting point of 109 to 110 °C. On 5-HT2A receptor, the Ki amounted to 1160 nM. Also, the Emax at 5-HT1A receptor [1] (agonist mode, efficacy ± SEM) came to 176 ± 1.2%. Moreover, on 5-HT1A receptor [1] (agonist mode, rat hippocampal membranes, 95% CI in brackets, read-out: 5-HT1A Receptor Stimulation EC50 (nM, 95% CI)), the concentration giving a half-maximal response (EC50) was 113 nM. Besides, the “agonist or antagonist properties at the 5-HT1A receptor” value at 5-HT1A receptor [1] (result in words) is on record as “agonistic profile”. Further, on 5-HT1A receptor [2] (95% CI in brackets, read-out: 5-HT1A Affinity Ki (nM, 95% CI)), the Ki turned out to be 0.78 nM. Further, the Ki at 5-HT1A receptor [2] (± SEM, two experiments, read-out: 5-HT1A Affinity pKi (nM ± SEM) (converted)) is 0.759 nM.
